From patent US8637525B2, “Compounds for the reduction of beta-amyloid production” (Bristol-Myers Squibb Company, priority 2009, dated 2014)

System: Aβ1-42 production
Test: Cellular assay for inhibition of Aβ1-42 production (H4 APP751 SWE clone 8.20)
Format: cell-based
Conditions: 19 h, H4 APP751 SWE clone 8.20 cells, 19 h incubation; class symbols; read-out: Activity Rating (Aβ42 cellular IC50)
Method in brief: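 Compound-treated cells were incubated 19 h at 37 °C in 5% CO2. Aβ42 in the cell plate was detected overnight at 4 °C with an Aβ42 neoepitope antibody (565, Wallac-labelled, 0.8 ng/well) plus N-terminal antibody 26D6 (APC, 75 ng/well) in 40 mM Tris-HCl pH 7.4, 0.2% BSA. IC50s came from curve fitting.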

IC50 [nM] | Structure (SMILES)
1.5 to 9.9 | CC[C@H](COC)Nc1nc(Nc2ccc(-n3cnc(Cl)c3)c(OC)c2)nc2c1CCC2c1ccc(F)cc1 (single isomer, unassigned) [Example 48A]
1.5 to 9.9 | CNc1nc(Nc2ccc(-n3cnc(Cl)c3)c(OC)c2)nc2c1COCC2c1ccccc1 (single isomer, unassigned) [Example 51A, N^2-(4-(4-chloro-1H-imidazol-1-yl)-3-methoxyphenyl)-N^4-methyl-8-phenyl-7,8-dihydro-5H-pyrano[4,3-d]pyrimidine-2,4-diamine]
10 to 100 | Cc1ncnn1-c1ccc(Nc2nc3c(c(N(C)C)n2)COCC3c2ccc(Cl)cc2)cc1F (single isomer, unassigned) [Example 67A, 8-(4-chlorophenyl)-N^2-(3-fluoro-4-(5-methyl-1H-1,2,4-triazol-1-yl)phenyl)-N^4,N^4-dimethyl-7,8-dihydro-5H-pyrano[4,3-d]pyrimidine-2,4-diamine]

Same assay, conditions: 19 h, H4 APP751 SWE clone 8.20 cells, 19 h incubation; read-out: Activity Rating (Aβ42 cellular IC50), numeric value

IC50 [nM] | Structure (SMILES)
130 | CC[C@H](COC)Nc1nc(Nc2ccc(-n3cnc(Cl)c3)c(OC)c2)nc2c1CCC2c1ccc(F)cc1 (single isomer, unassigned) [Example 48B]
540 | Cc1ncnn1-c1ccc(Nc2nc3c(c(N(C)C)n2)COCC3c2ccc(Cl)cc2)cc1F (single isomer, unassigned) [Example 67B, 8-(4-chlorophenyl)-N^2-(3-fluoro-4-(5-methyl-1H-1,2,4-triazol-1-yl)phenyl)-N^4,N^4-dimethyl-7,8-dihydro-5H-pyrano[4,3-d]pyrimidine-2,4-diamine]

Same assay, conditions: H4 APP751 SWE clone 8.20 cells, 19 h incubation; class symbols; read-out: Activity Rating (Aβ42 cellular IC50)

IC50 [nM] | Structure (SMILES)
10 to 100 | COCC(Nc1nc(Nc2ccc(-n3cnc(Cl)c3)c(OC)c2)nc2c1CCC2c1ccc(F)cc1)C1CC1 (single isomer, unassigned) [Example 45C, N2-(4-(4-chloro-1H-imidazol-1-yl)-3-methoxyphenyl)-N4-(1-cyclopropyl-2-methoxyethyl)-7-(4-fluorophenyl)-6,7-dihydro-5H-cyclopenta[d]pyrimidine-2,4-diamine]
1.5 to 9.9 | COCC(Nc1nc(Nc2ccc(-n3cnc(Cl)c3)c(OC)c2)nc2c1CCC2c1ccc(F)cc1)C1CC1 (single isomer, unassigned) [Example 45D, N2-(4-(4-chloro-1H-imidazol-1-yl)-3-methoxyphenyl)-N4-(1-cyclopropyl-2-methoxyethyl)-7-(4-fluorophenyl)-6,7-dihydro-5H-cyclopenta[d]pyrimidine-2,4-diamine]
1.5 to 9.9 | COc1cc(Nc2nc3c(c(N(C)C)n2)CCC3c2ccc(F)cc2)ccc1-n1cnc(Cl)c1 (single isomer, unassigned) [Example 46A, N^2-(4-(4-chloro-1H-imidazol-1-yl)-3-methoxyphenyl)-7-(4-fluorophenyl)-N^4,N^4-dimethyl-6,7-dihydro-5H-cyclopenta[d]pyrimidine-2,4-diamine]
10 to 100 | COc1cc(Nc2nc3c(c(N(C)C)n2)CCC3c2ccc(F)cc2)ccc1-n1cnc(Cl)c1 (single isomer, unassigned) [Example 46B, N^2-(4-(4-chloro-1H-imidazol-1-yl)-3-methoxyphenyl)-7-(4-fluorophenyl)-N^4,N^4-dimethyl-6,7-dihydro-5H-cyclopenta[d]pyrimidine-2,4-diamine]
1.5 to 9.9 | COc1cc(Nc2nc(N[C@H](C)C3CC3)c3c(n2)C(c2ccc(F)cc2)CC3)ccc1-n1cnc(Cl)c1 (single isomer, unassigned) [Example 49A]
10 to 100 | COc1cc(Nc2nc(N[C@H](C)C3CC3)c3c(n2)C(c2ccc(F)cc2)CC3)ccc1-n1cnc(Cl)c1 (single isomer, unassigned) [Example 49B]
1.5 to 9.9 | COc1cc(Nc2nc(N[C@@H](C)C3CC3)c3c(n2)C(c2ccc(F)cc2)CC3)ccc1-n1cnc(Cl)c1 (single isomer, unassigned) [Example 50A]
10 to 100 | COc1cc(Nc2nc(N[C@@H](C)C3CC3)c3c(n2)C(c2ccc(F)cc2)CC3)ccc1-n1cnc(Cl)c1 (single isomer, unassigned) [Example 50B]
1.5 to 9.9 | CNc1nc(Nc2ccc(-n3cnc(Cl)c3)c(OC)c2)nc2c1COCC2c1ccccc1 (single isomer, unassigned) [Example 51B, N^2-(4-(4-chloro-1H-imidazol-1-yl)-3-methoxyphenyl)-N^4-methyl-8-phenyl-7,8-dihydro-5H-pyrano[4,3-d]pyrimidine-2,4-diamine]
1.5 to 9.9 | CCN(C)c1nc(Nc2ccc(-n3cnc(Cl)c3)c(OC)c2)nc2c1COCC2c1ccccc1 (single isomer, unassigned) [Example 52A, N^2-(4-(4-Chloro-1H-imidazol-1-yl)-3-methoxyphenyl)-N^4-ethyl-N^4-methyl-8-phenyl-7,8-dihydro-5H-pyrano[4,3-d]pyrimidine-2,4-diamine]
10 to 100 | CCN(C)c1nc(Nc2ccc(-n3cnc(Cl)c3)c(OC)c2)nc2c1COCC2c1ccccc1 (single isomer, unassigned) [Example 52B, N^2-(4-(4-Chloro-1H-imidazol-1-yl)-3-methoxyphenyl)-N^4-ethyl-N^4-methyl-8-phenyl-7,8-dihydro-5H-pyrano[4,3-d]pyrimidine-2,4-diamine]
1.5 to 9.9 | COc1cc(Nc2nc3c(c(N(C)C)n2)COCC3c2ccccc2)ccc1-n1cnc(Cl)c1 (single isomer, unassigned) [Example 53A, N^2-(4-(4-Chloro-1H-imidazol-1-yl)-3-methoxyphenyl)-N^4,N^4-dimethyl-8-phenyl-7,8-dihydro-5H-pyrano[4,3-d]pyrimidine-2,4-diamine]
10 to 100 | COc1cc(Nc2nc3c(c(N(C)C)n2)COCC3c2ccccc2)ccc1-n1cnc(Cl)c1 (single isomer, unassigned) [Example 53B, N^2-(4-(4-Chloro-1H-imidazol-1-yl)-3-methoxyphenyl)-N^4,N^4-dimethyl-8-phenyl-7,8-dihydro-5H-pyrano[4,3-d]pyrimidine-2,4-diamine]
1.5 to 9.9 | CNc1nc(Nc2ccc(-n3cnc(Cl)c3)c(OC)c2)nc2c1COCC2c1ccc(Cl)cc1 (single isomer, unassigned) [Example 64A, N^2-(4-(4-chloro-1H-imidazol-1-yl)-3-methoxyphenyl)-8-(4-chlorophenyl)-N^4-methyl-7,8-dihydro-5H-pyrano[4,3-d]pyrimidine-2,4-diamine]
10 to 100 | CNc1nc(Nc2ccc(-n3cnc(Cl)c3)c(OC)c2)nc2c1COCC2c1ccc(Cl)cc1 (single isomer, unassigned) [Example 64B, N^2-(4-(4-chloro-1H-imidazol-1-yl)-3-methoxyphenyl)-8-(4-chlorophenyl)-N^4-methyl-7,8-dihydro-5H-pyrano[4,3-d]pyrimidine-2,4-diamine]
100 to 1000 | COc1cc(Nc2nc3c(c(N4CC(F)(F)C4)n2)COCC3c2ccc(Cl)cc2)ccc1-n1cnc(Cl)c1 (single isomer, unassigned) [Example 66A, N-(4-(4-chloro-1H-imidazol-1-yl)-3-methoxyphenyl)-8-(4-chlorophenyl)-4-(3,3-difluoroazetidin-1-yl)-7,8-dihydro-5H-pyrano[4,3-d]pyrimidin-2-amine]
1.5 to 9.9 | COc1cc(Nc2nc3c(c(N4CC(F)(F)C4)n2)COCC3c2ccc(Cl)cc2)ccc1-n1cnc(Cl)c1 (single isomer, unassigned) [Example 66B, N-(4-(4-chloro-1H-imidazol-1-yl)-3-methoxyphenyl)-8-(4-chlorophenyl)-4-(3,3-difluoroazetidin-1-yl)-7,8-dihydro-5H-pyrano[4,3-d]pyrimidin-2-amine]
1.5 to 9.9 | CNc1nc(Nc2ccc(-n3ncnc3C)c(F)c2)nc2c1COCC2c1ccc(Cl)cc1 (single isomer, unassigned) [Example 69A, 8-(4-chlorophenyl)-N^2-(3-fluoro-4-(5-methyl-1H-1,2,4-triazol-1-yl)phenyl)-N^4-methyl-7,8-dihydro-5H-pyrano[4,3-d]pyrimidine-2,4-diamine]
100 to 1000 | CNc1nc(Nc2ccc(-n3ncnc3C)c(F)c2)nc2c1COCC2c1ccc(Cl)cc1 (single isomer, unassigned) [Example 69B, 8-(4-chlorophenyl)-N^2-(3-fluoro-4-(5-methyl-1H-1,2,4-triazol-1-yl)phenyl)-N^4-methyl-7,8-dihydro-5H-pyrano[4,3-d]pyrimidine-2,4-diamine]
1.5 to 9.9 | CNc1nc(Nc2ccc(-n3cnc(C)c3)c(OC)c2)nc2c1COCC2c1ccc(Cl)cc1 (single isomer, unassigned) [Example 70A, 8-(4-chlorophenyl)-N^2-(3-methoxy-4-(4-methyl-1H-imidazol-1-yl)phenyl)-N^4-methyl-7,8-dihydro-5H-pyrano[4,3-d]pyrimidine-2,4-diamine]
10 to 100 | CNc1nc(Nc2ccc(-n3cnc(C)c3)c(OC)c2)nc2c1COCC2c1ccc(Cl)cc1 (single isomer, unassigned) [Example 70B, 8-(4-chlorophenyl)-N^2-(3-methoxy-4-(4-methyl-1H-imidazol-1-yl)phenyl)-N^4-methyl-7,8-dihydro-5H-pyrano[4,3-d]pyrimidine-2,4-diamine]

Same assay, conditions: H4 APP751 SWE clone 8.20 cells, 19 h incubation; read-out: Activity Rating (Aβ42 cellular IC50), numeric value

IC50 [nM] | Structure (SMILES)
5.3 | COc1cc(Nc2nc3c(c(N(C)C)n2)COCC3c2ccc(Cl)cc2)ccc1-n1cnc(Cl)c1 (single isomer, unassigned) [Example 65A, N^2-(4-(4-chloro-1H-imidazol-1-yl)-3-methoxyphenyl)-8-(4-chlorophenyl)-N^4,N^4-dimethyl-7,8-dihydro-5H-pyrano[4,3-d]pyrimidine-2,4-diamine]
160 | COc1cc(Nc2nc3c(c(N(C)C)n2)COCC3c2ccc(Cl)cc2)ccc1-n1cnc(Cl)c1 (single isomer, unassigned) [Example 65B, N^2-(4-(4-chloro-1H-imidazol-1-yl)-3-methoxyphenyl)-8-(4-chlorophenyl)-N^4,N^4-dimethyl-7,8-dihydro-5H-pyrano[4,3-d]pyrimidine-2,4-diamine]
